Source: PubChem BioAssay AID2765 (Broad Institute, 2010)
Calls of active or inactive are those of the source.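 The calls were made as follows: active = half-maximal concentration for the rise in caspase light signal at or below ten times the top tested dose; inconclusive = flat fit between 30% and 70% activity, or unreliable curve fit; inactive = the rest.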

Tested on: MEF A1-2A-BIM cells, caspase 3/7 luminescence, 3 h
Assay: caspase activation in A1-2A-BIM MEF cells, dose response, A1 inhibitor project, cell-based, luminescence, retest (AID 2765)

Row | SMILES | EC50
1 | COc1ccc(-n2ncc3c2CC(C)(C)CC3NC(=O)Cc2nonc2C)cc1 (centres undefined) | > 35 µM (inactive)
2 | O=C(NC1CCCCC1)c1cccc2c1C(=O)c1ccc(-c3ccc(OC(F)(F)F)cc3)cc1S2(=O)=O | 27.5 µM
3 | O=C(NCc1ccc(/C=N\NC(=O)C(=O)Nc2ccccc2Br)o1)C(=O)Nc1ccccc1 | > 35 µM (inactive)
4 | CS(=O)(=O)c1ncc(Cl)c(C(=O)Nc2ccc(OC(F)F)cc2)n1 | > 35 µM (inactive)
5 | Cc1ccc(OC(=O)C2CCN(C(=O)c3ccccc3C)CC2)c(Br)c1 | > 35 µM (inactive)
6 | CCOC(=O)COc1ccccc1/C=C\[N+](=O)[O-] | 5.85 µM
7 | COc1ccccc1-c1cn[nH]c1-c1ccc(OCc2ccccc2)cc1O | > 35 µM (inactive)
8 | N#CCn1nnc(-c2ccc3c(c2)OCO3)n1 | > 35 µM (inactive)
9 | NC(=O)c1ccc(NC(=O)CSc2nnc(C3CC3)n2C2CC2)cc1 | > 35 µM (inactive)
10 | COc1ccc(S(=O)(=O)Nc2ccccc2C(=O)NC2CC2)cc1NC(C)=O | > 35 µM (inactive)
11 | COc1ccc(S(=O)(=O)Nc2ccc(NC(C)=O)cc2)cc1 | > 35 µM (inactive)
12 | COc1cccc(C(=O)NCC(=O)N/N=C/c2ccc(OC(=O)c3cccs3)c(OC)c2)c1 | > 35 µM (inactive)
13 | CCN(CC)C(=O)CCCc1c[nH]c2ccccc12 | > 35 µM (inactive)
14 | COc1ccc([C@H]2CC(=O)C=C(c3ccccc3C(F)(F)F)C2)cc1 | > 35 µM (inactive)
15 | O=C(Cc1ccc(-n2cccc2)cc1)NC1CCCCC1 | > 35 µM (inactive)
16 | O=C(Nc1ccc2oc(-c3ccccc3F)nc2c1)c1ccccc1F | > 35 µM (inactive)
17 | CC1(C)OC(=O)C(=Cc2ccc(-c3ccc(S(N)(=O)=O)cc3)o2)C(=O)O1 | > 35 µM (inactive)
18 | CC1=CC(=O)C(C(C)C)=C/C1=N/OS(=O)(=O)c1ccccc1 | 9.28 µM
19 | CSc1ccc(C(c2c(C)[nH][nH]c2=O)c2c(C)[nH][nH]c2=O)cc1 | > 35 µM (inactive)
20 | C[C@H](CO)N1C[C@H](C)[C@@H](CN(C)CC2CCCCC2)Oc2c(NS(=O)(=O)c3cccs3)cccc2C1=O | > 35 µM (inactive)
21 | CC(C)Oc1ccccc1C(=O)NC(CO)C(=O)O (centres undefined) | > 35 µM (inactive)
22 | Cc1cccc(NC(=O)/C(C#N)=C/c2cn(CC(=O)NCc3ccco3)c3ccccc23)c1 | 21.7 µM
23 | CC(=O)[C@]1(O)Cc2c(O)c3c(c(O)c2[C@@H](O[C@H]2C[C@H](N)[C@H](O)[C@H](C)O2)C1)C(=O)c1ccccc1C3=O | > 35 µM (inactive)
24 | CCN(CC)S(=O)(=O)c1cc(NC(=O)C2Cc3ccccc3C(=O)O2)ccc1C (centres undefined) | > 35 µM (inactive)

Row | SMILES | EC50
25 | COC(=O)Cc1csc(/N=C/c2c(O)n(-c3cccc(C(F)(F)F)c3)c(=O)c3ccccc23)n1 | 5.7 µM
26 | C[C@]12CC[C@H](O)C[C@H]1CC[C@@H]1[C@@H]2CC[C@]2(C)[C@@H](C3=CC(=O)OC3)CC[C@]12O | > 35 µM (inactive)
27 | CCc1nn(-c2cc(Oc3cccc4ccccc34)nc(-c3ccccc3)n2)c(N)c1C#N | > 35 µM (inactive)
28 | CC1CCN(c2ccc3nnc(CCC(=O)NCc4ccco4)n3n2)CC1 | > 35 µM (inactive)
29 | O=C(O)Cc1ccc(NC(=O)C(c2ccccc2)c2ccccc2)cc1 | > 35 µM (inactive)
30 | Cc1ccc(C(C[N+](=O)[O-])c2c(C)[nH]n(-c3ccccc3)c2=O)cc1 (centres undefined) | > 35 µM (inactive)
31 | CCOC(=O)/C(=C\c1ccc(OC(F)F)cc1)C1=Nn2c(nnc2-c2ccc(Cl)cc2)SC1 | 6.18 µM
32 | CCc1cccc(N(CC(=O)NCc2ccc(F)cc2)C(=O)c2csnn2)c1 | > 35 µM (inactive)
33 | O=C(NCCc1ccccc1)C1CCCN1C(=O)Nc1ccc(F)cc1 (centres undefined) | > 35 µM (inactive)
34 | CC(NC(=O)c1cc(F)c(F)c(F)c1F)c1ccc(-n2ccnc2)cc1 (centres undefined) | > 35 µM (inactive)
35 | Cc1cc(C2C(C#N)=C(N)SC(N)=C2C#N)c(C)s1 | > 35 µM (inactive)
36 | COCc1cccc(NC(=O)CCc2ccccc2)c1 | > 35 µM (inactive)
37 | Cc1ccc(OCCC(=O)Nc2ccccc2C(=O)NC2CC2)cc1 | > 35 µM (inactive)
38 | CSc1ccc(CNC(=O)Cn2nc(C)c3c(C)n(-c4ccc(C)cc4)nc3c2=O)cc1 | > 35 µM (inactive)
39 | Cc1ccc(N=C2C(=O)Nc3ccccc32)cc1 | > 35 µM (inactive)
40 | Cc1ccc(NC(=O)CCN2CC(C)OC(C)C2)cc1C (centres undefined) | > 35 µM (inactive)
41 | CCOC(=O)c1ccc(NS(=O)(=O)c2ccc3c(c2)CCCN3C(C)=O)cc1 | > 35 µM (inactive)
42 | COc1cccc(-c2cc(=O)c3cc(NC(=O)c4ccc(N(C)C)cc4)ccc3[nH]2)c1 | > 35 µM (inactive)
43 | CCOc1ccc2nc(NCCNC(=O)Nc3cccc(C)c3)c(C#N)cc2c1 | 35.7 µM
44 | COC(=O)CN(c1ccc(OC)c(OC)c1)S(C)(=O)=O | > 35 µM (inactive)
45 | COc1ccc(C(=O)NCc2nnc(SCC(=O)NCc3ccco3)o2)cc1OC | > 35 µM (inactive)
46 | COc1ccc(S(=O)(=O)N2CC(O)CC2C(=O)OCC(=O)Nc2ccc(Cl)cn2)cc1 (centres undefined) | > 35 µM (inactive)
47 | CCOC(=O)/C(=C\c1cccnc1)C(=O)c1cc(C(C)=O)c(Nc2ccccc2)s1 | > 35 µM (inactive)
48 | CCCc1cc(=O)oc2cc(C)cc(OCC(=O)Nc3ccc(S(N)(=O)=O)cc3)c12 | > 35 µM (inactive)

Row | SMILES | EC50
49 | O=C1/C(=C/c2ccc(N3CCOCC3)o2)SC(=Nc2ccccc2)N1CCc1c[nH]c2ccccc12 | 9.16 µM
50 | COc1cc(C(=O)Nc2cc(-c3ccccc3)[nH]n2)cc(OC)c1OC | > 35 µM (inactive)
51 | O=C(Nc1ccccc1N1CCCCC1)c1ccc(Cl)cc1 | > 35 µM (inactive)
52 | CCOC(=O)CCCNS(=O)(=O)c1c(C)ccc2nsnc12 | > 35 µM (inactive)
53 | CCOCCCNC(=O)C1(O)c2cc(Br)ccc2NC(=O)N1c1ccc(CC)cc1 (centres undefined) | > 35 µM (inactive)
54 | O=C(Nc1ccccc1)N(Cc1ccc(Cl)cc1)CC(O)C(F)(F)F (centres undefined) | > 35 µM (inactive)
55 | CCOC(=O)CN(Cc1ccccc1)C(=O)OC(C)(C)C | > 35 µM (inactive)
56 | CCOC(=O)COc1ccc(S(=O)(=O)N2CCN(c3ccc(OC)cc3)CC2)cc1 | > 35 µM (inactive)
57 | COc1ccc(-c2oc(=O)c3cc(OC)c(OC)cc3c2/C=C/c2cccc([N+](=O)[O-])c2)cc1 | > 35 µM (inactive)
58 | O=C(CCNc1n[nH]c(=O)[nH]c1=O)N/N=C/c1ccc(C(F)(F)F)cc1 | > 35 µM (inactive)
59 | COc1ccccc1NC(=O)Nc1c(C)n(C)n(-c2ccccc2)c1=O | > 35 µM (inactive)
60 | Nc1cccc(Oc2cnccn2)c1 | > 35 µM (inactive)
61 | COc1ccc(C2C(C(=O)c3ccc(C)o3)=C(O)C(=O)N2Cc2cccnc2)cc1OC (centres undefined) | > 35 µM (inactive)
62 | O=C(CN(C(=O)CCC(=O)Nc1nccs1)c1cccc(F)c1)NCc1ccccc1 | > 35 µM (inactive)
63 | COC(=O)c1ccc(CNC(=O)C2CCC(=O)N(CCc3ccccc3)C2)cc1 (centres undefined) | > 35 µM (inactive)
64 | CCc1cccc(NC(=O)C2CCN(S(=O)(=O)c3ccc4c(c3)NC(=O)CO4)CC2)c1 | > 35 µM (inactive)
65 | NC(=O)c1ccc[n+](CC(=O)NCc2ccc(Cl)cc2)c1 | > 35 µM (inactive)
66 | CC(C)(C)C1CCc2onc(C(=O)Nc3cccc(O)c3)c2C1 (centres undefined) | > 35 µM (inactive)
67 | O=C(Cc1cn2ccsc2n1)Nc1cccc2cnccc12 | > 35 µM (inactive)
68 | CC(=O)n1nc2nc(C)cc(C)c2c1N | > 35 µM (inactive)
69 | Cc1cccc(C)c1NC(=O)CSc1nc(C)c(CC(=O)c2ccc(Br)cc2)c(C)c1C#N | 30.2 µM
70 | COc1ccc(S(=O)(=O)N(C)C[C@H]2Oc3ccc(NC(=O)Nc4c(C)noc4C)cc3C(=O)N([C@H](C)CO)C[C@@H]2C)cc1 | > 35 µM (inactive)
71 | C=CCn1c(SCc2ccc(F)cc2)nnc1-c1sc2nc(C)cc(C)c2c1N | > 35 µM (inactive)
72 | O=C(CNC(=O)c1ccc(Br)cc1)NC1CC1 | > 35 µM (inactive)

Row | SMILES | EC50
73 | Cc1cc(C)n2nc(SCC(=O)NC(=O)c3ccccc3)nc2n1 | > 35 µM (inactive)
74 | O=C(c1cc(-c2ccccn2)nc2ccc(Cl)cc12)N1CCN(CCc2ccccc2)CC1 | > 35 µM (inactive)
75 | Cc1ccc(S(=O)(=O)n2cc(-c3ccccc3)c3ccccc32)cc1 | > 35 µM (inactive)
76 | CC(C)(C)OC(=O)n1cc(CCO)c2ccccc21 | > 35 µM (inactive)
77 | O=c1c(O[C@@H]2O[C@H](CO)[C@@H](O)[C@H](O)[C@H]2O)c(-c2ccc(O)cc2)oc2cc(O)cc(O)c12 | > 35 µM (inactive)
78 | CCS(=O)(=O)c1ncc(Cl)c(C(=O)Nc2ccc(S(=O)(=O)N(C)c3ccccc3)cc2)n1 | > 35 µM (inactive)
79 | COc1ccc(C2Nc3ccc4ccccc4c3-c3c2c(=O)oc2ccccc32)cc1 (centres undefined) | 11 µM
80 | Cc1ccc(NC(=O)COC(=O)CCc2c(C)nc3ncnn3c2C)cc1C | > 35 µM (inactive)
81 | O=C(NCc1cccs1)C(=O)NCC1OCCCN1S(=O)(=O)c1ccccc1 (centres undefined) | > 35 µM (inactive)
82 | O=C1C2CCCN2C(c2cccc(Br)c2)N1c1ccc(F)cc1 (centres undefined) | > 35 µM (inactive)
83 | COc1cc(-c2cc(-c3ccccc3)nc(SCC(=O)Nc3nccs3)c2C#N)cc(OC)c1OC | > 35 µM (inactive)
84 | CCOc1cc(/C=N/N=C(\N)c2nonc2N)cc(Br)c1OCc1cccc2ccccc12 | 28 µM
85 | CCOC(=O)[C@@H]1[C@H]2COc3ccc(Br)cc3[C@H]2N2C(=O)N(c3ccc(Cl)cc3)C(=O)[C@@]12C | > 35 µM (inactive)
86 | Cc1cc(C)cc(NC(=O)/C(C#N)=C/c2cn(CC(=O)NCc3ccco3)c3ccccc23)c1 | 4.65 µM
87 | CN(C)C(=O)[C@@H]1C[C@H]1[C@@H](NC(=O)OCc1ccccc1)c1ccccc1 | > 35 µM (inactive)
88 | COc1cc(CN2CCc3ccccc3C2)ccc1O | > 35 µM (inactive)
89 | COc1ccc(C(=O)Nc2ccc(S(=O)(=O)NC(C)=O)cc2)cc1[N+](=O)[O-] | > 35 µM (inactive)
90 | CNC(=O)Nc1ccc(Cn2cc(C(F)(F)F)ccc2=O)cc1 | > 35 µM (inactive)
91 | CC(C)OC(=O)CN1C(=O)S/C(=C/c2ccc(N3CCCCC3)o2)C1=O | > 35 µM (inactive)
92 | COc1ccc(NC(=O)c2ccco2)c(NC(=O)c2ccc([N+](=O)[O-])cc2)c1 | > 35 µM (inactive)
93 | O=C(COc1ccc(Br)cc1F)NCC1(N2CCCCC2)CCCCC1 | > 35 µM (inactive)
94 | CCOc1cc(C(=O)CSc2nnc(CNc3ccc(Cl)cc3)o2)ccc1NC(=O)CC | 16 µM
